Source: ChEMBL document CHEMBL1157738, “Simocyclinone D8 turns on against Gram-negative bacteria in a clinical setting” (2010)
In brackets after ≈: the same amount, converted by molar mass.

Experiments:
Escherichia coli [1] = assay: Antibacterial activity against Escherichia coli Top10 assessed as drug uptake; type: functional, organism-based
Escherichia coli [2] = assay: Antibacterial activity against Escherichia coli JM109 after 24 hrs by twofold serial dilution method; type: functional
Escherichia coli [3] = assay: Antibacterial activity against Escherichia coli Top10 assessed as drug uptake relative to total amount drug treated; type: functional, organism-based
Klebsiella pneumoniae [4] = assay: Antibacterial activity against Klebsiella pneumoniae isolate 134 after 24 hrs by twofold serial dilution method; type: functional
Klebsiella pneumoniae [5] = assay: Antibacterial activity against Klebsiella pneumoniae isolate 91 assessed as residual bacterial survival at 50 mg/L after 24 hrs by twofold serial dilution method; type: functional; conditions: isolate 91, 24 h
Klebsiella pneumoniae [6] = assay: Antibacterial activity against Klebsiella pneumoniae isolate 204 expressing qnr B19 gene assessed as residual bacterial survival at 50 mg/L after 24 hrs by twofold serial dilution method; type: functional; conditions: isolate 204, 24 h
Klebsiella pneumoniae [7] = assay: Antibacterial activity against Klebsiella pneumoniae isolate 92 assessed as drug uptake relative to total amount drug treated; type: functional, organism-based
Klebsiella pneumoniae [8] = assay: Antibacterial activity against Klebsiella pneumoniae isolate 91 after 24 hrs by twofold serial dilution method; type: functional
Escherichia coli [9] = assay: Antibacterial activity against Escherichia coli isolate 41 after 24 hrs by twofold serial dilution method; type: functional
Escherichia coli [10] = assay: Antibacterial activity against Escherichia coli isolate 47 expressing qnr B19 gene assessed as residual bacterial survival at 50 mg/L after 24 hrs by twofold serial dilution method; type: functional; conditions: isolate 47, 24 h
Klebsiella pneumoniae [11] = assay: Antibacterial activity against Klebsiella pneumoniae isolate 173 assessed as residual bacterial survival at 50 mg/L after 24 hrs by twofold serial dilution method; type: functional; conditions: isolate 173, 24 h
Escherichia coli [12] = assay: Antibacterial activity against Escherichia coli isolate 7 assessed as residual bacterial survival at 50 mg/L after 24 hrs by twofold serial dilution method; type: functional; conditions: isolate 7, 24 h
Klebsiella pneumoniae [13] = assay: Antibacterial activity against Klebsiella pneumoniae isolate 172 expressing qnr B19 gene, GyrA D87G mutant assessed as residual bacterial survival at 50 mg/L after 24 hrs by twofold serial dilution method; type: functional; conditions: isolate 172, 24 h
Escherichia coli [14] = assay: Antibacterial activity against Escherichia coli HB101 after 24 hrs by twofold serial dilution method; type: functional
Staphylococcus aureus = assay: Antibacterial activity against Staphylococcus aureus after 24 hrs by twofold serial dilution method; type: functional
Escherichia coli [15] = assay: Antibacterial activity against Escherichia coli Top10 assessed as residual bacterial survival at 50 mg/L after 24 hrs by twofold serial dilution method; type: functional; conditions: Top10, 24 h
Escherichia coli [16] = assay: Antibacterial activity against Escherichia coli isolate 24 assessed as drug uptake; type: functional, organism-based
Escherichia coli [17] = assay: Antibacterial activity against Escherichia coli isolate 50 expressing qnr B19 gene assessed as residual bacterial survival at 50 mg/L after 24 hrs by twofold serial dilution method; type: functional; conditions: isolate 50, 24 h
Escherichia coli [18] = assay: Antibacterial activity against Escherichia coli isolate 95 expressing GyrA S83L mutant assessed as residual bacterial survival at 50 mg/L after 24 hrs by twofold serial dilution method; type: functional; conditions: isolate 95, 24 h
Escherichia coli [19] = assay: Antibacterial activity against Escherichia coli isolate 24 assessed as residual bacterial survival at 50 mg/L after 24 hrs by twofold serial dilution method; type: functional; conditions: isolate 24, 24 h
Klebsiella pneumoniae [20] = assay: Antibacterial activity against Klebsiella pneumoniae isolate 92 assessed as residual bacterial survival at 50 mg/L after 24 hrs by twofold serial dilution method; type: functional; conditions: isolate 92, 24 h
Escherichia coli [21] = assay: Antibacterial activity against Escherichia coli isolate 41 assessed as residual bacterial survival at 50 mg/L after 24 hrs by twofold serial dilution method; type: functional; conditions: isolate 41, 24 h
Escherichia coli [22] = assay: Antibacterial activity against Escherichia coli isolate 50 assessed as drug uptake relative to total amount drug treated; type: functional, organism-based
Escherichia coli [23] = assay: Antibacterial activity against Escherichia coli isolate 21 after 24 hrs by twofold serial dilution method; type: functional
Klebsiella pneumoniae [24] = assay: Antibacterial activity against Klebsiella pneumoniae isolate 97 expressing qnr B19 gene after 24 hrs by twofold serial dilution method; type: functional
Escherichia coli [25] = assay: Antibacterial activity against Escherichia coli isolate 50 expressing qnr B19 gene after 24 hrs by twofold serial dilution method; type: functional
Klebsiella pneumoniae [26] = assay: Antibacterial activity against Klebsiella pneumoniae isolate 92 after 24 hrs by twofold serial dilution method; type: functional
Escherichia coli [27] = assay: Antibacterial activity against Escherichia coli JM109 assessed as residual bacterial survival at 50 mg/L after 24 hrs by twofold serial dilution method; type: functional; conditions: JM109, JM 109, 24 h
Klebsiella pneumoniae [28] = assay: Antibacterial activity against Klebsiella pneumoniae isolate 173 after 24 hrs by twofold serial dilution method; type: functional
Klebsiella pneumoniae [29] = assay: Antibacterial activity against Klebsiella pneumoniae isolate 97 expressing qnr B19 gene assessed as residual bacterial survival at 50 mg/L after 24 hrs by twofold serial dilution method; type: functional; conditions: isolate 97, 24 h
Escherichia coli [30] = assay: Antibacterial activity against Escherichia coli isolate 50 assessed as drug uptake; type: functional, organism-based

In the case of `CC(=O)O[C@@H]1[C@@H](C)O[C@@H](c2ccc3c(c2O)[C@@H](O)[C@]24O[C@@]2(C3=O)[C@@]2(O)C(=O)C=C(C)C[C@@]2(O)C[C@@H]4O)C[C@H]1OC(=O)/C=C/C=C/C=C/C=C/C(=O)Nc1c(O)c2ccc(O)c(Cl)c2oc1=O` [SIMOCYCLINONE D8], the Drug uptake (Escherichia coli [1]) is reported as 80 pmol, the MIC50 (Escherichia coli [2]) is reported as > 100 µg/mL and the Drug uptake (Escherichia coli [3]) is reported as 2.61%. The MIC50 (Klebsiella pneumoniae [4]) was 25 µg/mL (≈ 26.8 µM), the survival at 50 µg/mL (Klebsiella pneumoniae [5]) was > 90% and the survival at 50 µg/mL (Klebsiella pneumoniae [6]) was > 90%. For the same compound, the Drug uptake (Klebsiella pneumoniae [7]) was 1.96%, the MIC50 (Klebsiella pneumoniae [8]) was > 100 µg/mL and the MIC50 (Escherichia coli [9]) was 0.78 µg/mL (≈ 0.837 µM). For the same compound, the survival at 50 µg/mL (Escherichia coli [10]) was 44%, the survival at 50 µg/mL (Klebsiella pneumoniae [11]) was 83% and the survival at 50 µg/mL (Escherichia coli [12]) was > 90%. For the same compound, the survival at 50 µg/mL (Klebsiella pneumoniae [13]) was > 90%, the MIC50 (Escherichia coli [14]) was > 100 µg/mL and the MIC50 (Staphylococcus aureus) was 50 µg/mL (≈ 53.6 µM). The survival at 50 µg/mL (Escherichia coli [15]) was > 90%, the Drug uptake (Escherichia coli [16]) was 260 pmol and the survival at 50 µg/mL (Escherichia coli [17]) was 41%. For the same compound, the survival at 50 µg/mL (Escherichia coli [18]) was > 90%, the survival at 50 µg/mL (Escherichia coli [19]) was 21% and the survival at 50 µg/mL (Klebsiella pneumoniae [20]) was 77%. The survival at 50 µg/mL (Escherichia coli [21]) was 9%, the Drug uptake (Escherichia coli [22]) was 5.87% and the MIC50 (Escherichia coli [23]) was > 100 µg/mL. It also gave an MIC50 (Klebsiella pneumoniae [24]) of 50 µg/mL (≈ 53.6 µM), an MIC50 (Escherichia coli [25]) of 12 µg/mL (≈ 12.9 µM) and an MIC50 (Klebsiella pneumoniae [26]) of 50 µg/mL (≈ 53.6 µM). The survival at 50 µg/mL (Escherichia coli [27]) was > 90%, the MIC50 (Klebsiella pneumoniae [28]) was 100 µg/mL (≈ 107 µM) and the survival at 50 µg/mL (Klebsiella pneumoniae [29]) was 68%. For the same compound, the Drug uptake (Escherichia coli [30]) was 180 pmol.
